Like-named read-outs stand apart in the source and are kept apart here.
Assays:
[1] = tested on: SW480 cells; test: Cell cycle distribution by flow cytometry; assay type: cell-based, human; settings: 0.01 μM; 24 h
Excerpt: […] TEXT PRINTED IN THE PICTURE: (A) no label printed: S: 27.7% | (B) no label printed: S: 33.8% | (C) no label printed: S: 44.0% | (D) no label printed: S: 46.5% DOUBTS OF THE COPYIST ABOUT THIS PICTURE: No substance labels are printed in the picture, only the panel letters A-D. / The phase label "S" is printed only in panel A. Applying it to the percentages in panels B, C and D is assumed from where the marker line sits.

[2] = target: T1, mouse R2 RNR protein (Mus musculus, UniProt P11157); test: Tyrosyl radical reduction in mouse R2 RNR protein (EPR); assay type: biochemical; settings: for effect on the tyrosyl radical in the absence of DTT: no DTT
T1 construct: made in house
T1 sequence (P11157 1-390): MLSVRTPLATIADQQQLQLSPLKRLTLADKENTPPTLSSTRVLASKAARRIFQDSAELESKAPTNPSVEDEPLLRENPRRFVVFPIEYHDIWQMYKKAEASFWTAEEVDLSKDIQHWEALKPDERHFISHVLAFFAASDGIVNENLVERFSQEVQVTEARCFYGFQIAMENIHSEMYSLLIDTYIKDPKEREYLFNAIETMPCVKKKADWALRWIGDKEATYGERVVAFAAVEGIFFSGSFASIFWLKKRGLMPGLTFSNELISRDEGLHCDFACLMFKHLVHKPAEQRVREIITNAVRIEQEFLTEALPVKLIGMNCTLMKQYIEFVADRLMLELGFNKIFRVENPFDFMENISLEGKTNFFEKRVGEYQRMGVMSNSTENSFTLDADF
Protocol: The time-dependent tyrosyl radical reduction in mR2 RNR by equimolar concentrations of TSCs and their respective copper(II) complexes, under reducing conditions, is shown in Figure 15. […] The favorable impact of the copper(II) coordination on the HL^2 inhibitory activity is quite obvious, when the ability to quench the tyrosyl radical by HL^2 is compared to that of 2′.
The samples contained 20 μM mR2 in 50 mM HEPES buffer, pH 7.60/100 mM KCl, 20 μM compound in 1% (v/v) DMSO/H2O, and 2 mM DTT. […]
2.6. Tyrosyl radical reduction in mouse R2 RNR protein
The tyrosyl radical reduction in mR2 protein by HL1, HL2, HL3, Cu(HL1)Cl2, [Cu(L2)Cl],
Cu(HL3)Cl2, HL1a’, HL1a’’, and HL2c´·CH3COOH was measured by EPR spectroscopy at 30 K,
on a Bruker Elexsys II E540 EPR spectrometer with an Oxford Instruments ER 4112HV helium
cryostat, as described previously.12,13 mR2 protein was expressed, purified, and iron -reconstituted
as described previously, 14 and passed through a 5 mL HiTrap desalting column (GE Healthcare)
(§1) 0.76 tyrosyl radical/polypeptide. Samples containing 20 µM mR2 in 50 mM HEPES buffer, pH
(§2) 7.50/100 mM NaCl, and 20 µM respective compound in 1% (v/v) DMSO/H2O, and 2 mM
dithiothreitol (DTT) were incubated for indicated times and quickly frozen in cold isopentane. The
same samples were used for repeated incubations at room temperature. […]
Furthermore, the intrinsic reaction coordinate (IRC) analysis was
performed to authenticate that the transition state pertains to the desired reaction coordinate. The
IRC calculations were done at the B3LYP/6-311++G(d,p) level of theory. Molecular orbitals were
drawn using Molekel software.17
3. Schemes for assignment of resonances in HL1 – HL3 and their isomers
Scheme S1. The atom numbering for the assignment of resonances in HL1 – HL3.
(1 picture or pasted object on this page, not shown here)

[3] = tested on: MRC-5; test: MTT cytotoxicity assay, MRC-5; assay type: cell-based; settings: Homo sapiens, MRC5, 72 h of exposure
Protocol: (§3) 2.5. In vitro cell studies
(§4) 2.5.1. Cell lines and culture conditions
All cell culture reagents were obtained from Sigma-Aldrich and plastic ware from Sarstedt […]
(§5) MRC-5 human embryonal lung fibroblast cell line (ATCC CCL-171) was purchased from LGC
(§6) Promochem, Teddington, UK. The cell line was cultured in Eagle’s Minimal Essential Medi um
(§7) (EMEM, containing 4.5 g/L glucose) supplemented with a non-essential amino acid mixture, a
(§8) selection of vitamins and 10% heat-inactivated fetal bovine serum. The cells were incubated at
(§9) 37°C, in a 5% CO2, 95% air atmosphere. All cell lines were detached with Trypsin-Versene
(§10) (EDTA) solution for 5 min at 37 °C.
(§11) The tested compounds were dissolved in DMSO using 10 mM concentration. Then stock solutions
(§12) were diluted in complete culture medium in 96-well microtiter plates, and two-fold serial dilutions
(§13) of compounds were prepared in 100 µL of RPMI 1640, horizontally. The semi-adherent colonic
(§14) adenocarcinoma cells were treated with Trypsin -Versene (EDTA) solution. They were adjusted to
(§15) a density of 1×10^4 cells in 100 µL of RPMI 1640 medium, and were added to each well, with the
(§16) exception of the medium control wells. The final volume of the wells containing compounds and
(§17) cells was 200 µL. The culture were incubated at 37 °C for 72 h; at the end of the incubation period,
(§18) 20 µL of MTT solution (from a stock solution of 5 mg/mL) were added to each well. After
(§19) incubation at 37 °C for 4 h, 100 µL of SDS solution (10% in 0.01 M HCI) were added to each well
(§20) and the plates were further incubated at 37 °C overnight. The cell growth was determined using
(§21) both methods by measuring the optical density (OD) at 450 nm (ref. 620 nm) with a Multiscan EX
(§22) ELISA reader. Inhibition of the cell growth (expressed as IC 50: inhibitory concentration that
(§23) reduces by 50% the growth of the cells exposed to the tested compounds) was determined from
(§24) the sigmoid curve where 100 – ((ODsample ‒ ODmedium control)/(ODcell control ‒ ODmedium control)) × 100
(§25) values were plotted against the logarithm of compound concentrations. […]

[4] = tested on: Colo205; test: MTT cytotoxicity assay, Colo205; assay type: cell-based; settings: Homo sapiens, COLO 205, 72 h of exposure
Protocol: (§26) The in vitro cytotoxicity of the TSCs HL^1–HL^3, copper(II) complexes Cu(HL^1)Cl2, [Cu(L^2)Cl], and Cu(HL^3)Cl2, and oxidized TSCs HL^1a′, HL^1a″, and HL^2c′·CH3COOH was tested in the doxorubicin-sensitive Colo205 and the multidrug-resistant Colo320 human colonic adenocarcinoma cell lines as well as in normal human embryonal lung fibroblast cells (MRC-5) by the colorimetric MTT assay. […]
as §3, §4
(§27) All cell culture reagents were obtained from Sigma-Aldrich and plastic ware from Sarstedt
(§28) (Germany). Doxorubicin-sensitive human colonic Colo 205 and multidrug resistant
(§29) Colo 320/MDR-LRP adenocarcinoma cell lines were purchased from LGC Promochem,
(§30) Teddington, UK. The cells were cultured in Roswell Park Memorial Institute (RPMI) 1640
(§31) medium supplemented with 10% heat-inactivated fetal bovine serum, 2 mM L-glutamine, 1 mM
(§32) Na-pyruvate and 100 mM Hepes. The cell lines were incubated at 37°C, in a 5% CO2, 95% air
as §5, §6, §7, §8, §9, §10, §11, §12, §13, §14, §15, §16, §17, §18, §19, §20, §21, §22, §23, §24, §25, §1, §2

[5] = tested on: Colo320; test: MTT cytotoxicity assay, Colo320; assay type: cell-based; settings: Homo sapiens, COLO 320, 72 h of exposure
Protocol: as §26, §3, §4, §27, §28, §29, §30, §31, §32, §5, §6, §7, §8, §9, §10, §11, §12, §13, §14, §15, §16, §17, §18, §19, §20, §21, §22, §23, §24, §25, §1, §2

[6] = cited from earlier work
[7] = tested on: SW480, MES-SA, MES-SA/Dx5, HL60, 41M, SK-BR-3; parameters: method as in PMID 32336116, PMID 22189939, PMID 31250199; settings: several human cancer cells; ref [36],[58],[80]; read-out: IC50 values reported; cited from earlier work
[8] = parameters: method as in earlier work; settings: cited from earlier work
[9] = tested on: Colo320 cells; test: Annexin-V-FITC/PI apoptosis induction assay (flow cytometry); assay type: cell-based, human; settings: 3 h induction
Protocol: To gain further insights into the cytotoxic behavior of the compounds, apoptosis induction by lead compounds HL^1 and [Cu(L^2)Cl] was investigated by a flow cytometry analysis of multidrug-resistant Colo320 cells stained with Annexin-V-FITC and propidium iodide (PI).
Colo320 cells were treated at the indicated concentration of the drugs. The dual parametric dot plots that combine the Annexin-V (FL1) and PI (FL3) fluorescence show the viable cell population in the lower-left quadrant Annexin-V–/PI– (Q4), the early apoptotic cells in the lower-right quadrant Annexin-V+/PI– (Q3), and the late apoptotic and necrotic cells in the upper-right quadrant Annexin-V+/PI+ (Q2). […]
2.5.3. Mechanisms of cell death: assay for apoptosis induction
The assay was carried out for selected compounds using an Annexin V-FITC Apoptosis Detection
Kit (Cat. No. APOAF-50TST) from Sigma according to the manufacturer's instructions. The
concentration of the Colo320 cell suspension was adjusted to approximately 0.5 × 10^6 cells per
mL in RPMI medium and the cell suspension was distributed in 1 mL aliquots into a 24-well plate,
and then incubated overnight at 37 °C and 5% CO2. On the following day, the medium was
removed and replaced by 1 mL RPMI medium containing the compounds except the control
samples. Colo320 cells were incubated in the presence of the compounds at 4 and 8 μM (HL1), or
0.25 and 0.50 μM (Cu(HL2)Cl2) in the 24-well plate at 37 °C for 3 h, and 12H-
controls. After the incubation period the samples were washed with PBS and fresh RPMI medium
was added to the samples. The cells were incubated overnight at 37 °C and 5% CO2. The next day,
200 μL 0.25% Trypsin (Trypsin-Versen) was added to the samples until cells appeared detached
followed by the addition of 400 μL of RPMI medium supplemented with 10% bovine serum. The
cells were collected in Eppendorf tubes and centrifuged at 2000 g for 2 min. The harvested cells
were resuspended in fresh serum free RPMI medium culture medium. After this step, the apoptosis
assay was carried out according to the instructions of the manufacturer. The fluorescence was
analyzed immediately using a ParTec CyFlow flow cytometer (Partec GmbH, Münster, Germany). […]

[10] = tested on: Colo320; parameters: method as in doi:10.1039/D0NJ01070G; settings: 72 h of exposure; ref [77]; cited from earlier work
[11] = tested on: Colo205; parameters: method as in doi:10.1039/D0NJ01070G; settings: 72 h of exposure; ref [77]; cited from earlier work
[12] = tested on: MRC-5; parameters: method as in doi:10.1039/D0NJ01070G; settings: 72 h of exposure; ref [77]; cited from earlier work

Nc1ccn([C@@H]2O[C@H](CO)[C@@H](O)C2(F)F)c(=O)n1 [Gemcitabine, reference compound]
G1 phase cells [1]: 26.8%
S phase cells [1]: 62.3%

CC1=CC(=Nc2nnc(-c3ccccn3)s2)C=C(C)C1=O [HL^1a″]
effect on the tyrosyl radical content in the presence of DTT ([2]; 20 μM compound, 2 mM DTT): cause an increase in the radical content
effect on the tyrosyl radical in the absence of DTT ([2]; 20 μM compound): do not have an effect
IC50 [3]: > 25 µM
IC50 [4]: > 25 µM
IC50 [5]: > 25 µM

NC(=S)N/N=C/c1ncccc1N [triapine, 3-aminopyridine-2-carboxaldehyde TSC, reference compound]
log D7.4 ([6]; pH 7.4): +0.85
mR2 inhibition potency order ([2]; equimolar 20 μM compound and mR2, 2 mM DTT): HL^1 ≈ triapine > HL^3 > HL^2
IC50 [7]: 0.4 to 2.6 µM
IC50 [4]: 3.34 ± 0.12 µM
IC50 [5]: 4.21 ± 0.46 µM

NC(=O)NO [hydroxyurea]
redox potential [8]: +0.724 V

NC(=S)NN=Cc1ccccn1 [FTSC, 2-formylpyridine TSC]
log D7.4 ([6]; ref [67]): +0.73
IC50 [7]: 1.9 to 10.6 µM

c1ccc2c(c1)Nc1c(ccc3ccccc13)S2 [M627, 12H-Benzophenothiazine, reference compound]
Cell death % Q1 ([9]; 10 µM): 4.59%
Early apoptosis % Q3 ([9]; 10 µM): 12.4%
Late apoptosis and necrosis % Q2 ([9]; 10 µM): 31.5%
Cell death % Q1 ([9]; 20 µM): 7.85%
Early apoptosis % Q3 ([9]; 20 µM): 11.1%
Late apoptosis and necrosis % Q2 ([9]; 20 µM): 26.1%

COc1cccc2c1C(=O)c1c(O)c3c(c(O)c1C2=O)C[C@@](O)(C(=O)CO)C[C@@H]3O[C@H]1C[C@H](N)[C@H](O)[C@H](C)O1 [doxorubicin]
IC50 [10]: 3.12 µM
IC50 [11]: 3.28 µM

C/C(=N\NC(N)=S)c1ccccn1 [AcTSC, 2-acetylpyridine TSC]
log D7.4 ([6]; ref [67]): +1.02
IC50 [7]: 2.5 to 3.6 µM

Cc1cc(Nc2nnc(-c3ccccn3)s2)cc(C)c1O [HL^1a′]
effect on the tyrosyl radical content in the presence of DTT ([2]; 20 μM compound, 2 mM DTT): cause an increase in the radical content
effect on the tyrosyl radical in the absence of DTT ([2]; 20 μM compound): do not have an effect
IC50 [3]: > 25 µM
IC50 [4]: > 25 µM
IC50 [5]: > 25 µM

CC(=NNc1nc2cc(C)c(O)c(C)c2s1)c1ccccn1 [HL^2c′·CH3COOH]
tyrosyl radical reduction (comparison in words) ([2]; 20 μM compound, 2 mM DTT): as potent as HL^3
IC50 [3]: 2.15 ± 0.1 µM
IC50 [4]: 2.73 ± 0.059 µM
IC50 [5]: 0.188 ± 0.041 µM

N.N.[Cl][Pt][Cl] [cisplatin, reference compound]
Cell death % Q1 ([9]; 15 µM): 1.64%
Early apoptosis % Q3 ([9]; 15 µM): 1.68%
Late apoptosis and necrosis % Q2 ([9]; 15 µM): 2.24%
Cell death % Q1 ([9]; 30 µM): 0.79%
Early apoptosis % Q3 ([9]; 30 µM): 4.90%
Late apoptosis and necrosis % Q2 ([9]; 30 µM): 4.07%

[Cl][Cu][Cl] [CuCl2, copper(II) chloride]
IC50 [10]: 20 µM
IC50 [12]: 24.5 µM
IC50 [11]: 19.7 µM
